Measurements published in US20040084867A1, “Individualization of therapy with anticoagulants” (Xanthus Life Sciences, Inc., priority 2002, published 2004).
Where two headings read alike, the source gives them in different places. Marks after values point to notes of the source that are not given here.

How the values were obtained:
AAMU-Ab = assay: Competitive antigen ELISA, cross-reactivity of AAMU-Ab; format: binding, rabbit; conditions: 0 = absence of inhibition or inhibition no higher than 40% at highest concentration tested (5 × 10^−6 M)
Procedure: (§1) Buffers and water without additives are filtered through millipore filters and kept for 1 week. BSA, antibodies, Tween™ 20 and horse radish peroxidase conjugates are added to these buffers and water just prior to use. Urine samples are usually collected 4 hours after drinking a cup of coffee (instant or brewed with approximately 100 mg of caffeine per cup) and stored at −80° C. The urine samples are diluted 10 times with sodium phosphate buffer (620 mosm, pH 7.50) and are subsequently diluted with water to give- concentrations of AAMU and 1X no higher than 3×10^−6 M in the ELISA. All the pipettings are done with an eight-channel pipette, except those of the antibody and sample solutions. Starting with the last well, 100 μL of a carbonate buffer (100 mM, pH 9.6) containing 2.5 μg mL^−1 antibodies are added to each well. After 90 min. at room temperature, the wells are washed three times with […] of TPB: isotonic sodium phosphate buffer (310 mosm, pH 7.50) containing 0.05% Tween™ 20.
(§2) After the initial wash, unoccupied sites are blocked by incubation for 90 min. at room temperature with 100 μL TBP containing 3% BSA. The wells are washed four times with 100 μL TPB. […] The microplate is gently shaken with an orbital shaker at room temperature for 3-4 hours. The wells are washed three times with 100 μL TPB containing 1% BSA and three times with water containing 0.05% Tween™ 20. To the washed plate is added 150 μL of a substrate buffer composed of citric acid (25 mM) and sodium phosphate dibasic buffer (50 mM, pH 5.0) containing 0.06% hydrogen peroxide and 0.04% o-phenylenediamine hydrochloride.
(§3) Buffers and water without additives were filtered through millipore filters and kept for 1 week. BSA, antibodies, Tween™ 20 and horse radish peroxidase conjugates were added to these buffers and water just prior to use. Urine samples were usually collected 4 hours after drinking a cup of coffee (instant or brewed with approximately 100 mg of caffeine per cup) and stored at −80° C. They were diluted 10 times with sodium phosphate buffer (620 mosm, pH 7.50) and were subsequently diluted with water to give concentrations of AAMU and 1X no higher than 3×10^−6 M in the ELISA. All the pipettings were done with an eight-channel pipette, except those of the antibody and sample solutions. Starting with the last well, 100 μL of a carbonate buffer (100 mM, pH 9.6) containing 2.5 μg mL^−1 antibodies was pipetted. After 90 min. at room temperature, the wells were washed three times with 100 μL of TPB: isotonic sodium phosphate buffer (310 mosm, pH 7.50) containing 0.05% Tween™ 20.
(§4) After the initial wash, unoccupied sites were blocked by incubation for 90 min. at room temperature with 100 μL TBP containing 3% BSA. The wells were washed four times with 100 μL TPB. […] The microplate was gently shaken with an orbital shaker at room temperature for 3-4 hours. The wells were washed three times with 100 μL with TPB containing 1% BSA and three times with water containing 0.05% Tween™ 20. To the washed plate was added 150 μL of a substrate buffer composed of citric acid (25 mM) and sodium phosphate dibasic buffer (50 mM, pH 5.0) containing 0.06% hydrogen peroxide and 0.04% o-phenylenediamine hydrochloride. After 20 min. at room temperature with shaking, the reaction was stopped with 50 μL of 2.5 N HCl.

1X-Ab = assay: Competitive antigen ELISA, cross-reactivity of 1X-Ab; format: binding, rabbit; conditions: for % Cross-Reaction, 1X-Ab: competitive antigen ELISA, 0 = absence of inhibition or inhibition no higher than 40% at highest concentration tested (5 × 10^−6 M); for [1X] × 10^6 (M), 1X concentration determined by ELISA: fixed 1X 3×10^−6 M
Procedure: as §1, §2, §3, §4

[1] = system: poor vs. extensive metabolizers; conditions: cited from earlier work
CYP2C9 = conditions: cited from earlier work
coronary artery patency = conditions: Heparin-Aspirin Reperfusion Trial, after TPA; aspirin 80 mg per day; cited from earlier work
[2] = system: slow and fast acetylators; conditions: cited from earlier work
[3] = system: individuals with deep vein thrombosis; conditions: Hull 1979; proximal DVT, 3 months; heparin 5,000 units sc every 12 hours, sodium warfarin INR 2.5 to 4.5; cited from earlier work
[4] = system: surgical and medical individuals; conditions: individuals with hip fracture, begun preoperatively; cited from earlier work
[5] = system: individuals with acute myocardial infarction; conditions: cited from earlier work
[6] = system: individuals with acute myocardial infarction; conditions: in vivo; cited from earlier work
[7] = system: individuals with evolving myocardial infarction; conditions: cited from earlier work; for combined incidence of death or nonfatal hemorrhagic stroke: TPA group vs groups receiving streptokinase
[8] = cited from earlier work
[9] = individuals who died before heparin was started excluded

Cn1c(=O)c2c(ncn2C)n(C)c1=O [1,3,7-Trimethyl Xanthine (Caffeine), 1,3,7-Trimethyl Xanthine]
% Cross-Reaction, AAMU-Ab (AAMU-Ab): 0% | % Cross-Reaction, 1X-Ab (1X-Ab): 0%

Cn1c(=O)c2[nH]cnc2n(C)c1=O [1,3-Dimethyl Xanthine (Theophylline), 1,3-Dimethyl Xanthine]
% Cross-Reaction, AAMU-Ab (AAMU-Ab): 0% | % Cross-Reaction, 1X-Ab (1X-Ab): 0.2%

Cn1c(=O)[nH]c2ncn(C)c2c1=O [1,7-Dimethyl Xanthine (Paraxanthine), 1,7-Dimethyl Xanthine]
% Cross-Reaction, AAMU-Ab (AAMU-Ab): 0% | % Cross-Reaction, 1X-Ab (1X-Ab): 0.5%

Cn1c(=O)[nH]c2[nH]c(=O)n(C)c2c1=O [1,7-Dimethyluric acid]
% Cross-Reaction, AAMU-Ab (AAMU-Ab): 0% | % Cross-Reaction, 1X-Ab (1X-Ab): 0%

Cn1c(=O)[nH]c2nc[nH]c2c1=O [1-Methyl Xanthine (1X), 1-Methyl Xanthine]
% Cross-Reaction, AAMU-Ab (AAMU-Ab): 0% | % Cross-Reaction, 1X-Ab (1X-Ab): 100%

Cn1c(=O)[nH]c2[nH]c(=O)[nH]c2c1=O [1-Methyluric acid]
% Cross-Reaction, AAMU-Ab (AAMU-Ab): 0% | [1X] × 10^6 (M), 1X concentration determined by ELISA (1X-Ab; 1U:1X ratio 0.50): 2.75 × 10^6 (M) | [1X] × 10^6 (M), 1X concentration determined by ELISA (1X-Ab; 1U:1X ratio 1.00): 3.25 × 10^6 (M) | [1X] × 10^6 (M), 1X concentration determined by ELISA (1X-Ab; 1U:1X ratio 1.50): 3.25 × 10^6 (M) | [1X] × 10^6 (M), 1X concentration determined by ELISA (1X-Ab; 1U:1X ratio 2.00): 3.60 × 10^6 (M) | apparent increase of 1X concentration (1X-Ab; 1U:1X ratio 2.5): 22% | [1X] × 10^6 (M), 1X concentration determined by ELISA (1X-Ab; 1U:1X ratio 2.50): 3.65 × 10^6 (M) | apparent increase of 1X concentration (1X-Ab; 1U:1X ratio 3.0): 32% | [1X] × 10^6 (M), 1X concentration determined by ELISA (1X-Ab; 1U:1X ratio 3.00): 3.95 × 10^6 (M) | [1X] × 10^6 (M), 1X concentration determined by ELISA (1X-Ab; 1U:1X ratio 4.00): 4.20 × 10^6 (M) | [1X] × 10^6 (M), 1X concentration determined by ELISA (1X-Ab; 1U:1X ratio 5.00): 4.30 × 10^6 (M) | [1X] × 10^6 (M), 1X concentration determined by ELISA (1X-Ab; 1U:1X ratio 6.00): 4.50 × 10^6 (M) | [1X] × 10^6 (M), 1X concentration determined by ELISA (1X-Ab; 1U:1X ratio 8.00): 4.30 × 10^6 (M) | % Cross-Reaction, 1X-Ab (1X-Ab): 11%

Cn1cnc2c1c(=O)[nH]c(=O)n2C [3,7-Dimethyl Xanthine (Theobromine), 3,7-Dimethyl Xanthine]
% Cross-Reaction, AAMU-Ab (AAMU-Ab): 0% | % Cross-Reaction, 1X-Ab (1X-Ab): 0%

Cn1c(=O)[nH]c(=O)c2[nH]cnc21 [3-Methyl Xanthine]
% Cross-Reaction, AAMU-Ab (AAMU-Ab): 0% | % Cross-Reaction, 1X-Ab (1X-Ab): 0%

CC(=O)Nc1c(N)n(C)c(=O)n(C)c1=O [5-Acetamino-6-amino-1,3-dimethyluracil]
% Cross-Reaction, AAMU-Ab (AAMU-Ab): 0% | % Cross-Reaction, 1X-Ab (1X-Ab): 0%

CC(=O)Nc1c(N)n(C)c(=O)[nH]c1=O [5-Acetamino-6-amino-1-methyluracil]
% Cross-Reaction, AAMU-Ab (AAMU-Ab): 100% | % Cross-Reaction, 1X-Ab (1X-Ab): 0%

CC(=O)Nc1c(N)[nH]c(=O)[nH]c1=O [5-Acetamino-6-amino-uracil]
% Cross-Reaction, AAMU-Ab (AAMU-Ab): 0.6% | % Cross-Reaction, 1X-Ab (1X-Ab): 0%

Cn1cnc2[nH]c(=O)[nH]c(=O)c21 [7-Methyl Xanthine]
% Cross-Reaction, AAMU-Ab (AAMU-Ab): 0% | % Cross-Reaction, 1X-Ab (1X-Ab): 0%

Cc1nc2[nH]c(=O)[nH]c(=O)c2[nH]1 [8-Methyl Xanthine]
% Cross-Reaction, AAMU-Ab (AAMU-Ab): 0% | % Cross-Reaction, 1X-Ab (1X-Ab): 0%

COc1ccc2c(c1)[C@]13CCCC[C@@H]1[C@H](C2)N(C)CC3 [Dextromethorphan]
mean performance ±SE ([1]; EMs): 95±0.5% | mean performance ±SE ([1]; PMs): 86±6%

Nc1nc2nc[nH]c2c(=O)[nH]1 [Guanine]
% Cross-Reaction, AAMU-Ab (AAMU-Ab): 0% | % Cross-Reaction, 1X-Ab (1X-Ab): 0%

O=c1[nH]cnc2nc[nH]c12 [Hypoxanthine]
% Cross-Reaction, AAMU-Ab (AAMU-Ab): 0% | % Cross-Reaction, 1X-Ab (1X-Ab): 0%

CC(=O)C[C@@H](c1ccccc1)c1c(O)c2ccccc2oc1=O [S-warfarin]
↓ in CLpo,u (unbound oral clearance) (CYP2C9; 47 Japanese, an individual with *3/*3): 90% ↓ in CLpo,u for (S)-warfarin in an individual | ↓ in CLpo,u (unbound oral clearance) (CYP2C9; 86 Japanese, 3 individuals with *1/*3): 63% ↓ in CLpo,u for (S)-warfarin in 3 individuals

O=c1cc[nH]c(=O)[nH]1 [Uracil]
% Cross-Reaction, AAMU-Ab (AAMU-Ab): 0% | % Cross-Reaction, 1X-Ab (1X-Ab): 0%

O=c1[nH]c(=O)c2[nH]c(=O)[nH]c2[nH]1 [Uric acid]
% Cross-Reaction, AAMU-Ab (AAMU-Ab): 0% | % Cross-Reaction, 1X-Ab (1X-Ab): 0%

O=c1[nH]c(=O)c2[nH]cnc2[nH]1 [Xanthine]
% Cross-Reaction, AAMU-Ab (AAMU-Ab): 0^a % | % Cross-Reaction, 1X-Ab (1X-Ab): 0%

CC(=O)Oc1ccccc1C(=O)O [aspirin]
Coronary artery patency at 18 hours (coronary artery patency): 52%

Nc1ccc(S(=O)(=O)c2ccc(N)cc2)cc1 [dapsone]
adverse reactions ([2]; fast acetylators): 17% | adverse reactions ([2]; slow acetylators): 46%

CC(=O)CC(c1ccccc1)c1c(O)c2ccccc2oc1=O (stereo not drawn) [sodium warfarin]
rate of recurrent venous thromboembolism [3]: 0%

Dextran
incidence of thrombosis [4]: 30%

streptokinase
mortality rate ([5]; all individuals): 9.2% | mortality rate [5, 9]: 6.2% | cerebral hemorrhage rate [6]: 0.24% | stroke rate [6]: 1.04% | combined incidence of death or nonfatal hemorrhagic stroke [7]: 7.5%

tissue plasminogen activator [TPA]
mortality rate ([5]; all individuals): 8.7% | mortality rate [5, 9]: 5.9% | cerebral hemorrhage rate [6]: 0.66% | excess of episodes of presumed hemorrhagic strokes compared with streptokinase [6]: 4.2 per 1000 | excess of strokes compared with streptokinase [6]: 3.5 per 1000 | stroke rate [6]: 1.39% | combined incidence of death or nonfatal hemorrhagic stroke [7]: 6.6% | reduction of mortality compared with the streptokinase strategies ([7]; in vivo): 14%

vitamin K
duration of resistance to warfarin ([8]; doses of 5 mg or more): up to 1 week | time to evident partial reversal of the anticoagulant effect of warfarin ([8]; parenteral administration): ≤ 6 h
